Patent US8575156B2, “Cyclic inhibitors of 11β-hydroxysteroid dehydrogenase 1” (Vitae Pharmaceuticals, Inc., priority 2007, dated 2013)
Like-named read-outs stand apart in the source and are kept apart here.

Biological target: 11β-HSD1 (Homo sapiens, UniProt P28845)
Assay: biochemical
Details: for IC50: IC50 Range, Biological Test Example 1, microsomes from CHO cells overexpressing human 11β-HSD1; for inhibition at 0.1111 µM: read-out: Average % inhibition at 111.1 nM, Biological Test Example 1, 111.1 nM compound
[1] = read-out: Average % inhibition at 100 nM, Biological Test Example 1, 100 nM compound
[2] = read-out: Average % inhibition at 100 nM, Biological Test Example 1, 100 nM

Sequence of 11β-HSD1 (P28845 whole entry): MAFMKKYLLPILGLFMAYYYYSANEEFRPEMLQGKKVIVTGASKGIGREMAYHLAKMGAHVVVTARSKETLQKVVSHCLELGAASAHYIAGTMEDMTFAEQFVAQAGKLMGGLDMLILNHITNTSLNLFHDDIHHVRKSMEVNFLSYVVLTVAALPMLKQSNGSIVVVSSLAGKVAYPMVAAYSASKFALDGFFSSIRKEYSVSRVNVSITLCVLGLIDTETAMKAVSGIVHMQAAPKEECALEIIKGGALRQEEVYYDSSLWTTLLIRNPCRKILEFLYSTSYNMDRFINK

| SMILES | IC50 [nM] | inhibition at 0.1 µM [1] [%] | inhibition at 0.1 µM [2] [%] | inhibition at 0.1111 µM [%] | inhibition at 0.1 µM (read-out: Average % inhibition at 100 nM) [%] |
| --- | --- | --- | --- | --- | --- |
| C=CCCC1(c2ccc(F)cc2)CCN([C@@H](C)c2ccc(OC(F)F)cc2)C(=O)O1 (single isomer, unassigned) [EXAMPLE 323 Isomer 1] | < 100 | – | – | – | 85.9 |
| COc1ccc([C@H](C)N2CC[C@@](C)(c3ccc(CO)cc3)OC2=O)cc1 (single isomer, unassigned) [EXAMPLE 429 Isomer 2] | > 100 | – | 23 | – | – |
| C=CC[C@@]1(c2ccc(F)cc2)CCN([C@H](C)c2ccc(Cl)c(F)c2)C(=O)O1 (single isomer, unassigned) [EXAMPLE 497 Isomer 3] | > 100 | – | – | – | – |
| C[C@@H](c1ccc(Br)cc1)N1CC[C@@](CCC(N)=O)(c2ccc(F)cc2F)OC1=O (single isomer, unassigned) [EXAMPLE 504 Isomer 1] | < 100 | – | 49.9 | – | – |
| C[C@@H](c1ccc(Br)cc1)N1CC[C@](CCC(N)=O)(c2ccc(F)cc2F)OC1=O (single isomer, unassigned) [EXAMPLE 504 Isomer 2] | < 100 | – | 94.4 | – | – |
| C[C@@H](c1ccc(Br)cc1)N1CC[C@@](C)(c2ccc(F)cc2)OC1=O (single isomer, unassigned) [EXAMPLE 518 Isomer 1] | < 100 | – | 92.2 | – | – |
| C[C@@H](c1ccc(Br)cc1)N1CC[C@](C)(c2ccc(F)cc2)OC1=O (single isomer, unassigned) [EXAMPLE 518 Isomer 2] | < 100 | – | 98 | – | – |
| Cc1cc(-c2ccc([C@H](C)N3CCC(C)(c4ccc(F)cc4)OC3=O)cc2)ccn1 (single isomer, unassigned) [EXAMPLE 519 Isomer 1] | < 100 | – | – | – | – |
| CC(C[C@]1(c2ccc(F)cc2)CCN([C@@H](C)c2ccc(Br)cc2)C(=O)O1)C(N)=O (single isomer, unassigned) [EXAMPLE 523 Isomer 1] | < 100 | – | 94.5 | – | – |
| CC(CO)C[C@]1(c2ccc(F)cc2)CCN([C@@H](C)c2ccc(Br)cc2)C(=O)O1 (single isomer, unassigned) [EXAMPLE 577 Isomer 1] | < 100 | – | 99.5 | – | – |
| CC1(c2ccccc2)CCN(c2cccc(-c3ccccc3Cl)c2)C(=O)O1 (stereo not drawn) [EXAMPLE 10, 3-(2′-chlorobiphenyl-3-yl)-6-methyl-6-phenyl-1,3-oxazinan-2-one] | < 100 | – | – | 90.5 | – |
| CC1(c2ccccc2)CCN(c2cccc(-c3ccc(S(C)(=O)=O)cc3)c2)C(=O)O1 (stereo not drawn) [EXAMPLE 11, 3-(4′-Methanesulfonyl-biphenyl-3-yl)-6-methyl-6-phenyl-[1,3]oxazinan-2-one] | 100 to 1000 | – | – | 28.4 | – |
| CC1(c2ccccc2)CCN(c2cccc(-c3ccccc3C#N)c2)C(=O)O1 (stereo not drawn) [EXAMPLE 12, 3′-(6-Methyl-2-oxo-6-phenyl-[1,3]oxazinan-3-yl)-biphenyl-2-carbonitrile] | < 100 | – | – | 86.4 | – |
| CC(C)NS(=O)(=O)c1ccc(-c2cccc(N3CCC(C)(c4ccccc4)OC3=O)c2)cc1 (stereo not drawn) [EXAMPLE 13, N-isopropyl-3′-(6-methyl-2-oxo-6-phenyl-1,3-oxazinan-3-yl)biphenyl-4-sulfonamide] | 100 to 1000 | – | – | 19.2 | – |
| CN(C)S(=O)(=O)c1cccc(-c2cccc(N3CCC(C)(c4ccccc4)OC3=O)c2)c1 (stereo not drawn) [EXAMPLE 14, N,N-dimethyl-3′-(6-methyl-2-oxo-6-phenyl-1,3-oxazinan-3-yl)biphenyl-3-sulfonamide] | 100 to 1000 | – | – | 21.9 | – |
| CC1(c2ccccc2)CCN(c2cccc(-c3ccccc3S(C)(=O)=O)c2)C(=O)O1 (stereo not drawn) [EXAMPLE 15, 6-methyl-3-(2′-(methylsulfonyl)biphenyl-3-yl)-6-phenyl-1,3-oxazinan-2-one] | 100 to 1000 | – | – | 38.5 | – |
| CC1(c2ccccc2)CCN(c2cccc(-c3ccc(S(=O)(=O)N4CCCC4)cc3)c2)C(=O)O1 (stereo not drawn) [EXAMPLE 16, 6-methyl-6-phenyl-3-(4′-(pyrrolidin-1-ylsulfonyl)biphenyl-3-yl)-1,3-oxazinan-2-one] | 100 to 1000 | – | – | 35.7 | – |

The next lines start with results.

| IC50 [nM] | inhibition at 0.1 µM [1] [%] | inhibition at 0.1 µM [2] [%] | inhibition at 0.1111 µM [%] | SMILES | inhibition at 0.1 µM (read-out: Average % inhibition at 100 nM) [%] |
| --- | --- | --- | --- | --- | --- |
| < 100 | 90.3 | – | – | COc1ccc([C@H](C)N2CC[C@](CC(O)CO)(c3ccc(F)cc3)OC2=O)cc1 (single isomer, unassigned) [EXAMPLE 206 Isomer 1] | – |
| < 100 | 96.8 | – | – | CC(C)C1(CCCO)CCN([C@@H](C)c2ccc(-c3ccc(F)cc3F)cc2)C(=O)O1 (single isomer, unassigned) [EXAMPLE 212 Isomer 1] | – |
| < 100 | 97.4 | – | – | C[C@@H](c1ccc(-c2ccc(F)cc2)cc1)N1CC[C@](CCO)(c2cccs2)OC1=O (single isomer, unassigned) [EXAMPLE 218 Isomer 1] | – |
| < 100 | 60.3 | – | – | C[C@@H](c1ccc(-c2ccc(F)cc2)cc1)N1CC[C@@](CCO)(c2cccs2)OC1=O (single isomer, unassigned) [EXAMPLE 218 Isomer 2] | – |
| < 100 | 100 | – | – | CC(O)C[C@]1(c2ccccc2)CCN([C@@H](C)c2ccc(-c3ccc(F)cc3)cc2)C(=O)O1 (single isomer, unassigned) [EXAMPLE 224 Isomer 1] | – |
| < 100 | – | – | – | C[C@@H](c1ccc(Br)cc1)N1CCC(CCCO)(c2ccc(F)cc2)OC1=O (single isomer, unassigned) [EXAMPLE 227 Isomer 1] | – |
| < 100 | 91.5 | – | – | CC[C@@H](c1ccc(Br)cc1)N1CC[C@](CC(O)CO)(c2ccccc2)OC1=O (single isomer, unassigned) [EXAMPLE 239 Isomer 1] | – |
| < 100 | 92.5 | – | – | CC[C@@H](c1ccc(Br)cc1)N1CC[C@](CC(O)CO)(c2ccc(F)cc2)OC1=O (single isomer, unassigned) [EXAMPLE 255 Isomer 1] | – |
| < 100 | – | 98.4 | – | CC(O)C[C@]1(c2ccc(F)cc2)CCN([C@@H](C)c2ccc(Br)cc2)C(=O)O1 (single isomer, unassigned) [EXAMPLE 371 Isomer 1] | – |
| < 100 | – | 94.7 | – | CC(O)CC[C@]1(c2ccc(F)cc2)CCN([C@@H](C)c2ccc(Cl)cc2)C(=O)O1 (single isomer, unassigned) [EXAMPLE 383 Isomer 1] | – |
| < 100 | – | 92.8 | – | CC(O)C[C@]1(c2ccc(F)cc2)CCN([C@@H](C)c2ccc(C(F)(F)F)cc2)C(=O)O1 (single isomer, unassigned) [EXAMPLE 388 Isomer 1] | – |
| < 100 | – | 88.7 | – | CC(O)CC[C@]1(c2ccc(F)cc2)CCN([C@@H](C)c2ccc(F)cc2)C(=O)O1 (single isomer, unassigned) [EXAMPLE 411 Isomer 1] | – |
| < 100 | – | 77.9 | – | COc1ccc([C@H](C)N2CC[C@](C)(c3ccc(CO)cc3)OC2=O)cc1 (single isomer, unassigned) [EXAMPLE 429 Isomer 1] | – |
| < 100 | – | – | – | C=CC[C@@]1(c2ccc(F)cc2)CCN([C@@H](C)c2ccc(Cl)c(F)c2)C(=O)O1 (single isomer, unassigned) [EXAMPLE 497 Isomer 1] | – |
| < 100 | – | – | – | C=CC[C@]1(c2ccc(F)cc2)CCN([C@@H](C)c2ccc(Cl)c(F)c2)C(=O)O1 (single isomer, unassigned) [EXAMPLE 497 Isomer 2] | – |
| < 100 | – | – | – | C=CC[C@]1(c2ccc(F)cc2)CCN([C@H](C)c2ccc(Cl)c(F)c2)C(=O)O1 (single isomer, unassigned) [EXAMPLE 497 Isomer 4] | – |
